The results in this text go back to patent US20140249141A1, “1,4-DIAZABICYCLO[3.2.2]NONANES AS NEURONAL NICOTINIC ACETYLCHOLINE RECEPTOR LIGANDS” (Targacept, Inc., priority 2011, published 2014).

The term Ki denotes a dissociation constant, usually derived from enzyme kinetics or from competition with a known ligand.

For one assay, the target named is T1, human α4β2 (Homo sapiens, UniProt P17787+P43681).
T1 construct: expressed in transfected cells; membranes prepared from the cells
In words: Competition binding to human α4β2 nicotinic receptor in membrane preparations. On the procedure:
(§1) SH-EP1/human α4β2 (Eaton et al., 2003), SH-EP1/human α4β4 (Gentry et al., 2003), SH-EP1/α6β3β4α5 (Grinevich et al., 2005), TE671/RD and SH-SY5Y cell lines (obtained from Dr. Ron Lukas, Barrow Neurological Institute, St. Joseph's Hospital and Medical Center, Phoenix, Ariz.) were maintained in proliferative growth phase in Dulbecco's modified Eagle's medium (Gibco/BRL) with 10% horse serum (Gibco BRL), 5% fetal bovine serum (HyClone, Logan Utah), 1 mM sodium pyruvate, 4 mM L-glutamine. For maintenance of stable transfectants, the α4β2 and α4β4 cell media was supplemented with 0.25 mg/mL zeocin and 0.13 mg/mL hygromycin B. Selection was maintained for the α6β3β4α5 cells with 0.25 mg/mL of zeocin, 0.13 mg/mL of hygromycin B, 0.4 mg/mL of geneticin, and 0.2 mg/mL of blasticidin. HEK/human α7/RIC3 cells (obtained from J. Lindstrom, U. Pennsylvania, Philadelphia, Pa.) were maintained in proliferative growth phase in Dulbecco's modified Eagle's medium (Gibco/BRL) with 10% fetal bovine serum (HyClone, Logan Utah), 1 mM sodium pyruvate, 4 mM L-glutamine, 0.4 mg/mL geneticin; 0.2 mg/ml hygromycin B.
(§2) Cells were harvested in ice-cold PBS, pH 7.4, then homogenized with a polytron (Brinkmann Instruments, Westbury, N.Y.). Homongenates were centrifuged at 40,000 g for 20 minutes (4° C.). The pellet was resuspended in PBS and protein concentration determined using the Pierce BCA Protein Assay kit (Pierce Biotechnology, Rockford, Ill.).
(§3) Binding to nicotinic receptors was assayed on membranes using standard methods adapted from published procedures (Lippiello and Fernandes, 1986; Davies et al., 1999). In brief, membranes were reconstituted from frozen stocks (approximately 0.2 mg protein) and incubated for 2 h on ice in […] assay buffer (PBS) in the presence of competitor compound (0.001 nM to 100 mM) and radioligand. […] Filters were washed 3 times and the radioactivity retained was determined by liquid scintillation counting.
(§4) Binding data were expressed as percent total control binding. […] Ki was calculated using the Cheng-Prusoff equation (Cheng and Prusoff, 1973).

A further assay addresses T2, human α7 (Homo sapiens, UniProt P36544).
T2 construct: expressed in transfected cells; host or cells: HEK cells expressing human α7 and RIC3, obtained from J. Lindstrom, U. Pennsylvania; membranes prepared from the cells
In words: Competition binding to human α7 nicotinic receptor in membrane preparations. Here is the method:
as §1, §2, §3, §4

The test system of the next assay is ova-challenged mice. In words: Ovalbumin-induced lung inflammation (allergic asthma) model, airway hyperresponsiveness. The conditions noted are these: FIGS. 1 and 2, compared to control. In kind it is in vivo. The source says: Ovalbumin-induced allergic asthma is a widely used model to reproduce the airway eosinophilia, pulmonary inflammation and elevated IgE levels found during asthma. Studies can be run with or without airway hyper-responsiveness (AHR) measurements. Allergic asthma is typically triggered by allergens in the air such as pollen, mold, dust mites, etc., and is commonly characterized by reversible […], elevated levels of IgE causing mast cell activation, chronic airway inflammation, and airway hyper-responsiveness (AHR). The immunological processes involved are characterized by proliferation and activation of Th2 lymphocytes, setting off an allergic cascade.
FIGS. 1 and 2 illustrate Compound A and Control compounds in the ovalbumin-induced lung inflammation model. For detailed procedures, see Hamelmann E, Schwarze J, Takeda K, Oshiba A, Larsen G L, Irvin C G, and Gelfand E W. Noninvasive measurement of airway responsiveness in allergic mice using barometric plethysmography. Am. J. Respir. Crit. Care Med 156: 766-775, 1997, herein incorporated by reference.

Setting [1] is: SH-EP1/human α4β2 cell membranes, [3H]-nicotine, Cheng-Prusoff, read-out: Human α4β2 Ki.

Structures are written as SMILES. “Also recorded” adds a separate entry of the source. Like-named read-outs stand apart in the source and are kept apart here.

Turning to `Cc1cc2nc(N3CCN4CCC3CC4)cc(=O)n2o1` [drawing 5], the Ki is 3.2 µM on human α4β2 (setting [1]) and 0.042 µM on human α7.
In the case of `O=c1cc(N2CCN3CCC2CC3)nc2cc(-c3ccccc3)on12`, the Ki on human α4β2 (setting [1]) was 1.2 µM; at human α7 (HEK/human α7/RIC3 cell membranes, [3H]-epibatidine, Cheng-Prusoff, read-out: Human α7 Ki), 0.28 µM.
`O=c1cc(N2CCN3CCC2CC3)nc2c3ccccc3on12`: the inhibition constant (Ki) at human α4β2 amounted to 1.2 µM; at human α7, 0.055 µM.
With `Cc1cc2nc(N3CCN4CCC3CC4)cc(=O)n2o1` [Compound A, 5-(1,4-diazabicyclo[3.2.2]nonan-4-yl)-2-methyl-7H-isoxazolo[2,3-a]pyrimidin-7-one], in the assay with ova-challenged mice, the “methacholine (MCh)-induced bronchoconstriction (Penh, index of airway resistance)” value is on record as “statistically significant results; also recorded: reduces methacholine (MCh)-induced bronchoconstriction”.
